# Source: patent publication US9326973B2, “Hepatitis C virus inhibitors” (priority 2012, dated 2016)
# Test system: HCV replicon, genotype-1a variant with glutamine 30 changed to glutamate in the NS5A protein
# Assay: microbe, parasite or virus in culture
# Assay type: cell-based, HCV genotype 1a
# Conditions: HCV replicon genotype 1a Q30E (Q→E) variant; test compound titrated with an NS5A-targeting compound (BMS-790052 fixed at 200 nM); ranking of synergist activity
# Procedure, shortened: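 Synergy was assessed by combining several fixed amounts of an NS5A-targeting compound with a titration of the second compound of interest.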
row,SMILES,Fold-Synergistic 1a (Q30E)
1,CC1(OC(=O)N2C[C@H](F)C[C@H]2C(=O)N[C@H](c2nc(-c3ccc(-c4ccc(-c5c[nH]c([C@@H](NC(=O)[C@@H]6C[C@@H](F)CN6C(=O)OC6(C)CC6)C(C)(C)C)n5)cc4)cc3)c[nH]2)C(C)(C)C)CC1 [Compound W-119],>100 fold
2,Cc1ccoc1C(=O)N1CCC[C@H]1c1ncc(-c2ccc(-c3ccc(-c4cnc([C@@H]5CCCN5C(=O)c5occc5C)[nH]4)cc3)cc2)[nH]1 [Compound S-189],>10 fold
3,C[C@@H]1CN(C(C)(C)C(=O)N[C@H](c2nc(-c3ccc(-c4ccc(-c5c[nH]c([C@@H](NC(=O)C(C)(C)N6C[C@@H](C)O[C@@H](C)C6)C(C)(C)C)n5)cc4)cc3)c[nH]2)C(C)(C)C)C[C@H](C)O1 [Compound W-160],>10 fold
4,CC(C)(C)[C@H](NC(=O)C12CC3CC(CC(C3)C1)C2)c1nc(-c2ccc(-c3ccc(-c4c[nH]c([C@@H](NC(=O)C56CC7CC(CC(C7)C5)C6)C(C)(C)C)n4)cc3)cc2)c[nH]1 [Compound N-62],>100 fold
5,CO[C@H](C)C(=O)N[C@H](c1nc(-c2ccc(-c3ccc(-c4c[nH]c([C@@H](NC(=O)[C@@H](C)OC)C(C)(C)C)n4)cc3)cc2)c[nH]1)C(C)(C)C [Compound L-80],>100 fold
6,CC(C)(C)OC(=O)N[C@]1(C(=O)N[C@H](c2nc(-c3ccc(-c4ccc(-c5c[nH]c([C@@H](NC(=O)[C@@]6(NC(=O)OC(C)(C)C)C[C@@H]6c6ccccc6)C(C)(C)C)n5)cc4)cc3)c[nH]2)C(C)(C)C)C[C@@H]1c1ccccc1 [Compound W-2],>100 fold
7,COC(=O)N[C@H](C(=O)N[C@H](c1nc(-c2ccc3cc(-c4ccc(-c5cnc([C@@H](NC(=O)[C@@H](NC(=O)OC)C(C)C)C(C)C)[nH]5)cc4)ccc3c2)c[nH]1)C(C)C)C(C)C [Compound P-1],<10 fold
8,CC(C)(C)[C@H](NC(=O)C1(C(F)F)CCCCO1)c1nc(-c2ccc(-c3ccc(-c4c[nH]c([C@@H](NC(=O)C5(C(F)F)CCCCO5)C(C)(C)C)n4)cc3)cc2)c[nH]1 (stereo partly shown) [Compound P-179],>100 fold
9,CC(C)(C)[C@H](NC(=O)C(=O)N1CCOCC1)c1nc(-c2ccc(-c3ccc(-c4c[nH]c([C@@H](NC(=O)C(=O)N5CCOCC5)C(C)(C)C)n4)cc3)cc2)c[nH]1 [Compound W-25],>100 fold
10,O=C(N1CCC[C@H]1c1ncc(-c2ccc(-c3ccc(-c4cnc([C@@H]5CCCN5C(=O)C5(O)CCC(F)(F)CC5)[nH]4)cc3)cc2)[nH]1)C1(O)CCC(F)(F)CC1 [Compound P-185],>100 fold
11,O=C(c1ccccn1)N1CCC[C@H]1c1ncc(-c2ccc(-c3ccc(-c4cnc([C@@H]5CCCN5C(=O)c5ccccn5)[nH]4)cc3)cc2)[nH]1 [Compound S-184],<10 fold
12,C[C@@H](OC(=O)N(C)C1(C(=O)N[C@H](c2nc(-c3ccc(-c4ccc(-c5c[nH]c([C@@H](NC(=O)C6(N(C)C(=O)O[C@H](C)C(F)(F)F)CC6)C(C)(C)C)n5)cc4)cc3)c[nH]2)C(C)(C)C)CC1)C(F)(F)F [Compound L-44],>100 fold
13,CC(C)(C)[C@H](NC(=O)c1ccccc1O)c1nc(-c2ccc(-c3ccc(-c4c[nH]c([C@@H](NC(=O)c5ccccc5O)C(C)(C)C)n4)cc3)cc2)c[nH]1 [Compound Y-72],>100 fold
14,CC(C)CC(=O)NC1(c2nc(-c3ccc(-c4ccc(-c5c[nH]c(C6(NC(=O)CC(C)C)CC=CC6)n5)cc4)cc3)c[nH]2)CC=CC1 [Compound N-16],<10 fold
15,CC(C)(C(=O)N[C@H](c1nc(-c2ccc(-c3ccc(-c4c[nH]c([C@@H](NC(=O)C(C)(C)C(=O)N5CC[C@@H](O)C5)C(C)(C)C)n4)cc3)cc2)c[nH]1)C(C)(C)C)C(=O)N1CC[C@@H](O)C1 [Compound W-151],>10 fold
16,CC1(C)CC(C(=O)N[C@H](c2nc(-c3ccc(-c4ccc(-c5c[nH]c([C@@H](NC(=O)C6CC(C)(C)C6)C(C)(C)C)n5)cc4)cc3)c[nH]2)C(C)(C)C)C1 [Compound L-53],>100 fold
17,C=C1CCC(C(=O)N[C@H](c2nc(-c3ccc(-c4ccc(-c5c[nH]c([C@@H](NC(=O)C6CCC(=C)CC6)C(C)(C)C)n5)cc4)cc3)c[nH]2)C(C)(C)C)CC1 [Compound N-118],>100 fold
18,CC(C)(C)[C@H](NC(=O)[C@@]1(C)C[C@H]2CC(F)(F)C[C@H]2C1)c1nc(-c2ccc(-c3ccc(-c4c[nH]c([C@@H](NC(=O)[C@@]5(C)C[C@H]6CC(F)(F)C[C@H]6C5)C(C)(C)C)n4)cc3)cc2)c[nH]1 [Compound P-152],>100 fold
19,O=C(Cc1ccccc1)N1CCC[C@H]1c1ncc(-c2ccc(-c3ccc(-c4cnc([C@@H]5CCCN5C(=O)Cc5ccccc5)[nH]4)cc3)cc2)[nH]1 [Compound S-107],<10 fold

row,SMILES,Fold-Synergistic 1a (Q30E)
1,CC(C)(C)OC(=O)N1CC(C)(C(=O)N[C@H](c2nc(-c3ccc(-c4ccc(-c5c[nH]c([C@@H](NC(=O)C6(C)CN(C(=O)OC(C)(C)C)C6)C(C)(C)C)n5)cc4)cc3)c[nH]2)C(C)(C)C)C1 [Compound L-63],>100 fold
2,C[C@H]1CC[C@@H](C(=O)N[C@H](c2nc(-c3ccc(-c4ccc(-c5c[nH]c([C@@H](NC(=O)[C@@H]6CC[C@H](C)N6C(=O)OC(C)(C)C)C(C)(C)C)n5)cc4)cc3)c[nH]2)C(C)(C)C)N1C(=O)OC(C)(C)C [Compound W-69],>100 fold
3,O=C(c1cc2ccccc2o1)N1CCC[C@H]1c1ncc(-c2ccc(-c3ccc(-c4cnc([C@@H]5CCCN5C(=O)c5cc6ccccc6o5)[nH]4)cc3)cc2)[nH]1 [Compound S-122],>10 fold
4,CC(C)(C)[C@H](NC(=O)C1(C2(O)CCOCC2)CCC1)c1ncc(-c2ccc(-c3ccc(-c4cnc([C@@H](NC(=O)C5(C6(O)CCOCC6)CCC5)C(C)(C)C)[nH]4)cc3)cc2)[nH]1 [Compound B84],>100 fold
5,COC12CCC(C(=O)N[C@H](c3nc(-c4ccc(-c5ccc(-c6c[nH]c([C@@H](NC(=O)C78CCC(OC)(CC7)CC8)C(C)(C)C)n6)cc5)cc4)c[nH]3)C(C)(C)C)(CC1)CC2 [Compound S-293],>100 fold
6,CC(C)[C@H](NC(=O)C(C)(C)N1C[C@@H](C)O[C@@H](C)C1)c1nc(-c2ccc(-c3ccc(-c4c[nH]c([C@@H](NC(=O)C(C)(C)N5C[C@@H](C)O[C@@H](C)C5)C(C)C)n4)cc3)cc2)c[nH]1 [Compound W-161],>100 fold
7,CCCC(C)(C)C(=O)N[C@H](c1nc(-c2ccc(-c3ccc(-c4c[nH]c([C@@H](NC(=O)C(C)(C)CCC)C(C)(C)C)n4)cc3)cc2)c[nH]1)C(C)(C)C [Compound S-281],>100 fold
8,CC(C)(C)[C@H](NC(=O)C1CC(=O)N(c2ccccc2O)C1)c1nc(-c2ccc(-c3ccc(-c4c[nH]c([C@@H](NC(=O)C5CC(=O)N(c6ccccc6O)C5)C(C)(C)C)n4)cc3)cc2)c[nH]1 (stereo partly shown) [Compound S-265],>100 fold
9,C[C@@H]1CCCCN1C(=O)C(=O)N[C@H](c1nc(-c2ccc(-c3ccc(-c4c[nH]c([C@@H](NC(=O)C(=O)N5CCCC[C@H]5C)C(C)(C)C)n4)cc3)cc2)c[nH]1)C(C)(C)C [Compound W-38],>100 fold
10,CC(C)(C)OC(=O)NC1(C(=O)N[C@H](c2nc(-c3ccc(-c4ccc(-c5c[nH]c([C@@H](NC(=O)C6(NC(=O)OC(C)(C)C)CCOCC6)C(C)(C)C)n5)cc4)cc3)c[nH]2)C(C)(C)C)CCOCC1 [Compound W-132],>100 fold
11,CC(C)[C@H](NC(=O)[C@@H]1C[C@@H](F)CN1C(=O)OC(C)(C)C)c1nc(-c2ccc(-c3ccc(-c4c[nH]c([C@@H](NC(=O)[C@@H]5C[C@@H](F)CN5C(=O)OC(C)(C)C)C(C)C)n4)cc3)cc2)c[nH]1 [Compound W-181],>100 fold
12,CC(C)(C)[C@H](NC(=O)C1CCOCC1)c1nc(-c2ccc(-c3ccc(-c4c[nH]c([C@@H](NC(=O)C5CCOCC5)C(C)(C)C)n4)cc3)cc2)c[nH]1 [Compound W-123],>100 fold
13,CN(C(=O)OC(C)(C)C)C1(C(=O)N[C@H](c2nc(-c3ccc(-c4ccc(-c5c[nH]c([C@@H](NC(=O)C6(N(C)C(=O)OC(C)(C)C)CC6)C(C)(C)C)n5)cc4)cc3)c[nH]2)C(C)(C)C)CC1 [Compound L-13],>100 fold
14,O=C(c1csc(-c2cccnc2)n1)N1CCC[C@H]1c1ncc(-c2ccc(-c3ccc(-c4cnc([C@@H]5CCCN5C(=O)c5csc(-c6cccnc6)n5)[nH]4)cc3)cc2)[nH]1 [Compound S-130],>10 fold
15,CC(C)(C)OC(=O)N1C[C@H](F)C[C@H]1C(=O)N[C@H](c1nc(-c2ccc(-c3ccc(-c4c[nH]c([C@@H](NC(=O)[C@@H]5C[C@@H](F)CN5C(=O)OC(C)(C)C)C5(C)CC5)n4)cc3)cc2)c[nH]1)C1(C)CC1 [Compound W-182],>100 fold
16,CC(C)[C@H](NC(=O)[C@@H]1C2C[C@@H]2CN1C(=O)OC(C)(C)C)c1nc(-c2ccc(-c3ccc(-c4c[nH]c([C@@H](NC(=O)[C@@H]5C6C[C@@H]6CN5C(=O)OC(C)(C)C)C(C)C)n4)cc3)cc2)c[nH]1 (stereo partly shown) [Compound W-74],>100 fold
17,O=C(c1ccc2ncsc2c1)N1CCC[C@H]1c1ncc(-c2ccc(-c3ccc(-c4cnc([C@@H]5CCCN5C(=O)c5ccc6ncsc6c5)[nH]4)cc3)cc2)[nH]1 [Compound S-136],<10 fold
18,CC(C)(C)[C@H](NC(=O)C(F)(F)C1(O)CCCC1)c1nc(-c2ccc(-c3ccc(-c4c[nH]c([C@@H](NC(=O)C(F)(F)C5(O)CCCC5)C(C)(C)C)n4)cc3)cc2)c[nH]1 [Compound P-164],>100 fold

# Same assay, conditions: Hepatitis C virus; genotype 1a Q30E replicon; BMS-790052 fixed at 200 nM; read-out: EC50 of P-55 in the presence of a fixed amount of BMS-790052
row,SMILES,EC50
1,CC(C)CC(=O)N[C@H](c1ncc(-c2ccc(-c3ccc(-c4cnc([C@@H](NC(=O)CC(C)C)C(C)C)[nH]4)cc3)cc2)[nH]1)C(C)C [Compound P-55],~2 nM

# Same assay, conditions: Hepatitis C virus; genotype 1a Q30E replicon; compound alone; read-out: EC50, titrated singly
row,SMILES,EC50
1,CC(C)CC(=O)N[C@H](c1ncc(-c2ccc(-c3ccc(-c4cnc([C@@H](NC(=O)CC(C)C)C(C)C)[nH]4)cc3)cc2)[nH]1)C(C)C [Compound P-55],> 200 nM

# Same assay, conditions: genotype 1a Q30E replicon; P-55 titrated with 200 nM BMS-790052
row,SMILES,synergistic inhibitory effect with the combination
1,CC(C)CC(=O)N[C@H](c1ncc(-c2ccc(-c3ccc(-c4cnc([C@@H](NC(=O)CC(C)C)C(C)C)[nH]4)cc3)cc2)[nH]1)C(C)C [Compound P-55],> 100 fold
